The values that follow come from PMC6271697, “Anticancer Activities of Polyynes from the Root Bark of Oplopanax horridus and Their Acetylated Derivatives” (Molecules, 2014).

Several values for one entry are separate records, joined by “and”; a condition that tells them apart may be missing. Equal entries are not always repeated. Where two headings read alike, the source gives them in different places.

Type in all cases: cell-based, human
One assay deals with HepG2 cells. As to the kind of experiment: MTT cell viability assay, HepG2 cells. To be noted: for IC50: read-out: IC50 HepG2; for antiproliferative effect on HepG2 cells (in words): concentrations 1–300 µM. As to the method: (§1) The human breast cancer cell lines MCF-7, MDA-MB-231, human hepatocellular liver cell line HepG2 and human lung carcinoma epithelial cells A549 were purchased from American Type Culture Collection (ATCC, Manassas, VA, USA). Normal human hepatic LO2 cells were obtained from the Institute of Cell Biology, Academic Sinica (Shanghai, China). The cells were grown in an atmosphere of 5% CO2 at 37 °C in RPMI 1640 medium supplemented with 10% fetal bovine serum, 100 U/mL penicillin and […] streptomycin.
(§2) The viability of cells was measured by a colorimetric MTT assay. Briefly, 1 × 10^4 cells/well in 96-well microplates were exposed to different concentration of polyynes and their acetylated derivatives respectively for 24 h incubation, following addition of 20 μL MTT solution (4 mg/mL) to each well for another 4 h incubation at 37 °C. Finally, the medium was removed and replaced with 100 μL dimethyl sulfoxide which was added to dissolve the dye crystal presented in cells. The absorbance was recorded at 570 nm using a microplate reader (1420 Multilabel counter victor^3, Perkin-Elmer, Waltham, MA, USA). The results were expressed as ratio of absorbance between treatments and control cells (solvent vehicle set at 100%). Four replicate wells were tested per assay which was repeated three times.

The subject of the next assay is LO2 cells. Nature of the assay: MTT cell viability assay, normal hepatic LO2 cells. The note with it: read-out: IC50 LO2. As to the method:
as §1, §2

The next assay relates to MDA-MB-231 cells. Nature of the assay: MTT cell viability assay, MDA-MB-231 cells. The note with it: for IC50: read-out: IC50 MDA-MB-231. As for the experimental part:
as §1, §2

For another assay, the system named is A549 cells. As to the kind of experiment: MTT cell viability assay, A549 cells. To be noted: for IC50: read-out: IC50 A549; for antiproliferative effect on A549 cells (in words): concentrations 1–300 µM. As to the method: as §1, §2
A further assay has as its system MCF-7 cells. Nature of the assay: MTT cell viability assay, MCF-7 cells. The note with it: for IC50: read-out: IC50 MCF-7; for antiproliferative effect on MCF-7 cells (in words): concentrations 1–300 µM. As for the experimental part: as §1, §2
The mark [1] stands for this setting: normal human hepatic cells, MTT, 24 h incubation.
Where [2] appears, read: Homo sapiens, A549, MTT, 24 h incubation.
Where [3] appears, read: Homo sapiens, MCF7, MTT, 24 h incubation.
[4] abbreviates: Homo sapiens, HepG2, MTT, 24 h incubation.
[5] abbreviates: L02, normal human hepatic cells, MTT, 24 h incubation.
Where [6] appears, read: Homo sapiens, MDA-MB-231, MTT, 24 h incubation.

Consider “(3S,8S,Z)-8-Hydroxyheptadeca-1,9-dien-4,6-diyn-3-yl acetate [OHR-6]”, for which the IC50 in the assay with HepG2 cells (MTT, 24 h incubation) was found to be 38.5 ± 6.2 µM; in the assay on LO2 cells (setting [1]), 46.1 ± 11.7 µM; in the assay on MDA-MB-231 cells (MTT, 24 h incubation), 36.2 ± 13.4 µM.
In the case of “(11S,16S,Z)-Octadeca-9,17-dien-12,14-diyne-1,11,16-triyl triacetate [OHR-8]”, the IC50 with A549 cells (MTT, 24 h incubation) was more than 300 µM; in the assay on MCF-7 cells (MTT, 24 h incubation), more than 300 µM; in the assay with HepG2 cells (MTT, 24 h incubation), 100 to 300 µM; with LO2 cells (setting [1]), more than 300 µM; in the assay with MDA-MB-231 cells (MTT, 24 h incubation), 19.6 ± 6.9 µM.
As for “(11S,16S,Z)-Octadeca-9-en-12,14-diyne-1,11,16-triyl triacetate [OHR-7]”, the half-inhibitory concentration (IC50) in the assay on A549 cells (MTT, 24 h incubation) was more than 300 µM; in the assay with MCF-7 cells (MTT, 24 h incubation), more than 300 µM; in the assay on HepG2 cells (MTT, 24 h incubation) it was more than 300 µM; with LO2 cells (setting [1]), more than 300 µM; in the assay with MDA-MB-231 cells (MTT, 24 h incubation), more than 300 µM.
Regarding “(3S,8S,Z)-8-Hydroxyheptadeca-9-en-4,6-diyn-3-yl acetate [OHR-4]”, the IC50 was 31.4 µM and 33.3 µM in the assay on A549 cells (MTT, 24 h incubation); 28 ± 2.9 µM in the assay on MCF-7 cells (MTT, 24 h incubation); 59.5 ± 3.1 µM in the assay with HepG2 cells (MTT, 24 h incubation); 34.3 ± 1.5 µM in the assay on LO2 cells (setting [1]); 23.4 ± 3.2 µM in the assay with MDA-MB-231 cells (MTT, 24 h incubation).
Regarding `CC[C@H](O)C#CC#C[C@@H](O)/C=C\CCCCCCCCO` [OH-6, (11S,16S,Z)-Octadeca-9-en-12,14-diyne-1,11,16-triol], the IC50 in the assay on A549 cells (setting [2]) was found to be 85.7 ± 13.2 µM; in the assay with MCF-7 cells (setting [3]) it was 106 ± 13.2 µM; in the assay with HepG2 cells (setting [4]), 45.3 ± 6.3 µM; in the assay on LO2 cells (setting [5]), 90.8 ± 4 µM; in the assay on MDA-MB-231 cells (setting [6]) it was 55.7 ± 11.8 µM.
Taken in the same sequence, the figures for `CCCCCCC/C=C\[C@H](O)C#CC#C[C@@H](O)CC` [OH-2, (3S,8S,Z)-Heptadeca-9-en-4,6-diyne-3,8-diol] were 44.1 ± 9.4 µM, 27.5 ± 2.2 µM, 38.4 ± 7.5 µM, 30.2 ± 4.8 µM and 14.7 ± 2.7 µM.
For `CC[C@H](O)C#CC#C[C@H](/C=C\CCCCCCCCOC(C)=O)OC(C)=O` [OHR-12, (11S,16S,Z)-16-Hydroxyoctadeca-9-en-12,14-diyne-1,11-diyl diacetate], the 50% inhibitory concentration (IC50) in the assay on A549 cells (setting [2]) is 100 to 300 µM; in the assay on MCF-7 cells (setting [3]) it was 90.7 ± 0.3 µM; with HepG2 cells (setting [4]), 100 to 300 µM; in the assay with LO2 cells (setting [5]), 100 to 300 µM; with MDA-MB-231 cells (setting [6]) it was 77.7 ± 1.9 µM.
For `C=C[C@H](O)C#CC#C[C@@H](O)/C=C\CCCCCCCCOC(C)=O` [OH-3, (11S,16S,Z)-11,16-Dihydroxyoctadeca-9,17-dien-12,14-diynyl acetate], the IC50 in the assay on A549 cells (setting [2]) is 98 ± 6.3 µM; in the assay on MCF-7 cells (setting [3]), 93.6 ± 6.1 µM; with HepG2 cells (setting [4]) it was 47.2 ± 5.9 µM; in the assay on LO2 cells (setting [5]), 90.3 ± 6.4 µM; in the assay with MDA-MB-231 cells (setting [6]) it was 16.5 ± 2.2 µM.
For the compound “(3S,8S,Z)-3,18-Dihydroxyoctadeca-1,9-dien-4,6-diyn-8-yl acetate [OHR-15]”, the 50% inhibitory concentration (IC50) in the assay on A549 cells (MTT, 24 h incubation) was more than 300 µM; with MCF-7 cells (MTT, 24 h incubation), more than 300 µM; with HepG2 cells (MTT, 24 h incubation), more than 300 µM; in the assay on LO2 cells (setting [1]) it was more than 300 µM; in the assay with MDA-MB-231 cells (MTT, 24 h incubation) it was 100 to 300 µM. Further, in the assay on A549 cells, the “antiproliferative effect on A549 cells (in words)” value is on record as “no cytotoxicity”. Moreover, in the assay with MCF-7 cells, the “antiproliferative effect on MCF-7 cells (in words)” value is “no cytotoxicity”. The “antiproliferative effect on HepG2 cells (in words)” value with HepG2 cells was “no cytotoxicity”.
`C=C[C@H](O)C#CC#C[C@@H](O)/C=C\CCCCCCCCO` [OH-5, (11S,16S,Z)-Octadeca-9,17-dien-12,14-diyne-1,11,16-triol]: the IC50 with A549 cells (setting [2]) is 150 to 300 µM; in the assay on MCF-7 cells (setting [3]), 94.4 ± 7.3 µM; in the assay on HepG2 cells (setting [4]), 48.3 ± 5.9 µM; in the assay on LO2 cells (setting [5]) it was 91 ± 9.5 µM; in the assay with MDA-MB-231 cells (setting [6]) it was 49 ± 10.9 µM.
Take “(3S,8S,Z)-18-Hydroxyoctadeca-9-en-4,6-diyne-3,8-diyl diacetate [OHR-13]”: the IC50 in the assay with A549 cells (MTT, 24 h incubation) was more than 300 µM; in the assay with MCF-7 cells (MTT, 24 h incubation), more than 300 µM; in the assay with HepG2 cells (MTT, 24 h incubation), more than 300 µM; in the assay with LO2 cells (setting [1]), more than 300 µM; in the assay on MDA-MB-231 cells (MTT, 24 h incubation) it was 137 ± 28.4 µM. The “antiproliferative effect on A549 cells (in words)” value in the assay with A549 cells is on record as “no cytotoxicity”. Also, the “antiproliferative effect on MCF-7 cells (in words)” value in the assay on MCF-7 cells is given as “no cytotoxicity”. In addition, the “antiproliferative effect on HepG2 cells (in words)” value in the assay on HepG2 cells is “no cytotoxicity”. Further, the “concentration showing some antiproliferative effects on MDA-MB-231 cells” value in the assay with MDA-MB-231 cells is “about 150 µM”.
For the compound “(11S,16S,Z)-11-Hydroxyoctadeca-9-en-12,14-diyne-1,16-diyl diacetate [OHR-11]”, the half-maximal inhibitory concentration (IC50) in the assay with A549 cells (MTT, 24 h incubation) was found to be 98.2 ± 17.5 µM; with MCF-7 cells (MTT, 24 h incubation), 78.1 ± 3.4 µM; in the assay on HepG2 cells (MTT, 24 h incubation), 77 ± 9.5 µM; in the assay with LO2 cells (setting [1]), 93.1 ± 14 µM; with MDA-MB-231 cells (MTT, 24 h incubation), 51.5 ± 8.4 µM.
Consider `C=C[C@@H](C#CC#C[C@@H](O)/C=C\CCCCCCCCOC(C)=O)OC(C)=O` [OHR-9], for which the IC50 worked out at 83.1 ± 8.4 µM in the assay with A549 cells (setting [2]); 81.3 ± 1 µM in the assay on MCF-7 cells (setting [3]); 59.9 ± 3 µM in the assay on HepG2 cells (setting [4]); 86.2 ± 11.3 µM in the assay on LO2 cells (setting [5]); 52 ± 7.5 µM in the assay with MDA-MB-231 cells (setting [6]).
As for “(11S,16S,Z)-16-Hydroxyoctadeca-9,17-dien-12,14-diyne-1,11-diyl diacetate [OHR-10]”, the IC50 in the assay on A549 cells (MTT, 24 h incubation) was 101 ± 7.3 µM; with MCF-7 cells (MTT, 24 h incubation), 94.3 ± 6.1 µM; in the assay on HepG2 cells (MTT, 24 h incubation) it was 78.4 ± 6.5 µM; with LO2 cells (setting [1]), 100 to 300 µM; in the assay with MDA-MB-231 cells (MTT, 24 h incubation) it was 56.7 ± 6.9 µM.
As for “(3S,8S,Z)-18-Hydroxyoctadeca-1,9-dien-4,6-diyne-3,8-diyl diacetate [OHR-14]”, the half-maximal inhibitory concentration (IC50) is more than 300 µM in the assay with A549 cells (MTT, 24 h incubation); more than 300 µM in the assay on MCF-7 cells (MTT, 24 h incubation); 150 to 300 µM in the assay on HepG2 cells (MTT, 24 h incubation); more than 300 µM in the assay on LO2 cells (setting [1]); 156 ± 35.5 µM with MDA-MB-231 cells (MTT, 24 h incubation). Moreover, the “antiproliferative effect on A549 cells (in words)” value with A549 cells is listed as “no cytotoxicity”. In addition, the “antiproliferative effect on MCF-7 cells (in words)” value with MCF-7 cells is “no cytotoxicity”. Further, the “antiproliferative effect on HepG2 cells (in words)” value in the assay with HepG2 cells is listed as “no cytotoxicity”. The “concentration showing some antiproliferative effects on MDA-MB-231 cells” value in the assay on MDA-MB-231 cells is “about 150 µM”.
Consider `CC[C@H](O)C#CC#C[C@@H](O)/C=C\CCCCCCCCOC(C)=O` [OH-4, (11S,16S,Z)-11,16-Dihydroxyoctadeca-9-en-12,14-diynyl acetate], for which the IC50 in the assay with A549 cells (setting [2]) came out at 109.9 ± 0.8 µM; in the assay with MCF-7 cells (setting [3]) it was 100 ± 7 µM; with HepG2 cells (setting [4]), 69.1 ± 1.8 µM; in the assay on LO2 cells (setting [5]) it was 91.9 ± 13.4 µM; with MDA-MB-231 cells (setting [6]), 87.8 ± 7.9 µM.
Turning to `C=C[C@H](O)C#CC#C[C@@H](O)/C=C\CCCCCCC` [OH-1, (3S,8S,Z)-Heptadeca-1,9-dien-4,6-diyne-3,8-diol], the concentration for half-maximal inhibition (IC50) with A549 cells (Homo sapiens, A549, 24 h) worked out at 23.5 ± 4.1 µM; with MCF-7 cells (Homo sapiens, MCF7, 24 h) it was 15.3 ± 0.3 µM; with HepG2 cells (Homo sapiens, HepG2, 24 h), 7.7 ± 1.3 µM; in the assay with LO2 cells (Homo sapiens, L02, 24 h), 8.7 ± 0.5 µM; in the assay with MDA-MB-231 cells (Homo sapiens, MDA-MB-231, 24 h) it was 4.7 ± 1.4 µM. The inhibition at 60 µM in the assay with A549 cells (Homo sapiens, A549, read-out: A549 cell growth inhibited) amounted to 95.6%.
